US20210395313A1, “PEPTIDE PAC1 ANTAGONISTS” (AMGEN INC., priority 2017, published 2021)
pIC50: −log10 of the molar value. Where a SMILES comes first, the peptide text is derived from it. Bridges are numbered along the chain shown (N, C = ends). Where no end group is shown, it is not given here. [ ]: non-standard residue; d: D form. Pra = C#CC[C@H](N)C(=O)O

Key:
rat PAC1 receptor = target: T1, rat PAC1 receptor (Rattus norvegicus, UniProt P32215); assay: LANCE Ultra cAMP accumulation antagonist assay in RG-2 cells; assay type: cell-based;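 note: RG-2 rat glioma cells endogenously expressing PAC1, test peptide preincubated 30 min, then PAC1 agonist added at its EC80 for 15 min, cAMP accumulation read by LANCE Ultra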
T1 construct: SHSY-5Y (human neuroblastoma cell line) and RG-2 (rat glioma cell line) cells endogenously express human and rat PAC1 receptors, respectively; endogenous in cells; host or cells: RG-2 rat glioma cells
T1 sequence (P32215 20-523): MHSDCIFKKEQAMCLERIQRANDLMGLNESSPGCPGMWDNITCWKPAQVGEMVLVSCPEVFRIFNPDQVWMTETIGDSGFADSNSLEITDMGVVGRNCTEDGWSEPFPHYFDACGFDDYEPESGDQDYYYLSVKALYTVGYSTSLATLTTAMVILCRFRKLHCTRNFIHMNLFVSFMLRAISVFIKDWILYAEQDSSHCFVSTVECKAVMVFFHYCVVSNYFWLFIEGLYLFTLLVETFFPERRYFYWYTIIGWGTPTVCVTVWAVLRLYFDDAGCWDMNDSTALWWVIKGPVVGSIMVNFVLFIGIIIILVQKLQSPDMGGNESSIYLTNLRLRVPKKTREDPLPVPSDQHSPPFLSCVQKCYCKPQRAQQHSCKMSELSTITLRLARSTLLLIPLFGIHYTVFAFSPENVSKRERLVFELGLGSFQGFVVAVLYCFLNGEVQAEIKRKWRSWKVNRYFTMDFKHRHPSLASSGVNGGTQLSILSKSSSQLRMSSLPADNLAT

human PAC1 receptor = target: T2, human PAC1 receptor (Homo sapiens, UniProt P41586); assay: LANCE Ultra cAMP accumulation antagonist assay in SHSY-5Y cells; assay type: cell-based;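 note: inhibition of cAMP accumulation evoked by PAC1 agonist at its EC80 in SHSY-5Y cells endogenously expressing receptor, 30 min preincubation then 15 min agonist, TR-FRET readout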
T2 construct: SHSY-5Y (human neuroblastoma cell line) and RG-2 (rat glioma cell line) cells endogenously express human and rat PAC1 receptors, respectively; endogenous in cells; host or cells: SHSY-5Y human neuroblastoma cells
T2 sequence (P41586 21-468): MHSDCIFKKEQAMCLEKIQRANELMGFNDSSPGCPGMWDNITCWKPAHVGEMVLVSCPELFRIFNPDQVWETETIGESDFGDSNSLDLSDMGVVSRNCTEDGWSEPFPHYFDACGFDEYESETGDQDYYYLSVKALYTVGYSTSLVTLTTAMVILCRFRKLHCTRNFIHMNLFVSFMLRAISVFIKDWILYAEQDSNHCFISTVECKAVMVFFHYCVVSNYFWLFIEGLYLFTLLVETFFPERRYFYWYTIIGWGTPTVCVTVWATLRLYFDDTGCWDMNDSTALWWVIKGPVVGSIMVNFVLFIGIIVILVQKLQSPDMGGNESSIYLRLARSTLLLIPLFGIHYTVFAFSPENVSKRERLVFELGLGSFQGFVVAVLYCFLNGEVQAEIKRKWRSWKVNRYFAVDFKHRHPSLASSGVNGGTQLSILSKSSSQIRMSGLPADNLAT

Row | Compound | pIC50 (rat PAC1 receptor) | pIC50 (human PAC1 receptor)
1 | CDATCQFRKAIDDCFTWSWHSNVPGSVFKACMKQKKKEFKAG-NH2 (disulfide 1-5, 14-31) [compound 135] | 9.00 to 11.00 | 9.00 to 11.00
2 | CDATCQFRKAIDDCQKQAHHSNVPGSVFKACMKQKKKEFKAR (disulfide 1-5, 14-31) [compound 68] | 9.00 to 11.00 | 9.00 to 11.00
3 | CDATCQFRKAIDDCWVIAWHSNVPGSVFKACMKQKKKEFKAG-NH2 (disulfide 1-5, 14-31) [compound 130] | > 11.00 | 9.00 to 11.00
4 | CDATCQFRKAIDDCYYRSWHANVPGSVFKACMKQKKKEWKAG-NH2 (disulfide 1-5, 14-31) [compound 60] | 9.00 to 11.00 | 9.00 to 11.00
5 | CDATCQFRKAIDDCQKQAHHSNVPGSVFKACMKQKKKEFKAH (disulfide 1-5, 14-31) [compound 153] | 9.00 to 11.00 | 7.00 to 9.00
6 | CC[C@H](C)[C@H](NC(=O)[C@H](C)NC(=O)[C@H](CCCCN)NC(=O)[C@H](CCCNC(=N)N)NC(=O)[C@H](Cc1ccccc1)NC(=O)[C@H](CCC(N)=O)NC(=O)[C@@H]1CSSC[C@H](N)C(=O)N[C@@H](CC(=O)O)C(=O)N[C@@H](C)C(=O)N[C@@H]([C@@H](C)O)C(=O)N1)C(=O)N[C@@H](CC(=O)O)C(=O)N[C@@H](CC(=O)O)C(=O)N[C@H]1CSSC[C@@H](C(=O)N[C@@H](CCSC)C(=O)N[C@@H](CCCCN)C(=O)N[C@@H](CCC(N)=O)C(=O)N[C@@H](CCCCN)C(=O)N[C@@H](CCCCN)C(=O)N[C@@H](CCCCN)C(=O)N[C@@H](CCC(=O)O)C(=O)N[C@@H](Cc2ccccc2)C(=O)N[C@@H](CCCCN)C(N)=O)NC(=O)[C@H](CCC(=O)O)NC(=O)[C@H](CCCCN)NC(=O)[C@H](Cc2ccccc2)NC(=O)[C@H](C(C)C)NC(=O)[C@H](CO)NC(=O)[C@H](CC(N)=O)NC(=O)CNC(=O)[C@@H]2CCCN2C(=O)[C@H](C(C)C)NC(=O)[C@H](CC(N)=O)NC(=O)[C@H](CO)NC(=O)[C@H](Cc2c[nH]cn2)NC(=O)[C@H](Cc2c[nH]cn2)NC(=O)[C@H](C)NC(=O)[C@H](CCC(N)=O)NC(=O)[C@H](CCCCN)NC(=O)[C@H](CC(=O)O)NC1=O [compound 295] | 9.00 to 11.00 | 7.00 to 9.00
7 | CDATCQFRKAIDDCDRQAHHSNVPGSVFKACMKQKKKEWKANN (disulfide 1-5, 14-31) [compound 154] | 9.00 to 11.00 | 9.00 to 11.00
8 | CDATCQFRKAIDDCYWQAIHANVPGSVWKACMKFRFNVWKAG-NH2 (disulfide 1-5, 14-31) [compound 54] | 9.00 to 11.00 | 7.00 to 9.00
9 | CDATCQFRKAIDDCARQAHHSNVPGSVFKACSKQKKKEWKAGH (disulfide 1-5, 14-31) [compound 40] | 7.00 to 9.00 | 7.00 to 9.00
10 | CDATCQFRKAIDDCARQAHHSQVPGSVFKACMKQKKKEWKAGH (disulfide 1-5, 14-31) [compound 22] | 9.00 to 11.00 | 9.00 to 11.00
11 | CDATCQFRKAIDDCQKQAHHSNVPGSVFKACMKQKKKEFKAGQ (disulfide 1-5, 14-31) [compound 174] | 9.00 to 11.00 | 7.00 to 9.00
12 | CDATCQFRKAIDDCAKQAHHSNVPGSVFKACMKQKKKEWKAGH (disulfide 1-5, 14-31) [SEQ ID NO 152] | 9.00 to 11.00 | 9.00 to 11.00
13 | CDATCQFRKAIDDCYKQAHHSNVPGSVFKACMKQKKKEFKAGH (disulfide 1-5, 14-31) [compound 47] | 9.00 to 11.00 | 9.00 to 11.00
14 | CDATCHFRKAIDDCQKQAHHSNVPGSVFKACMKQHKKRWRAG-NH2 (disulfide 1-5, 14-31) [compound 124] | 9.00 to 11.00 | 9.00 to 11.00
15 | CDATCQFRKAIDDCVRQAHHSNVPGSVFKACMKQKKKEWKAGH (disulfide 1-5, 14-31) [SEQ ID NO 156] | 9.00 to 11.00 | 9.00 to 11.00
16 | CDATCQFRKAIDDCQ[Pra]QAHHSNVPGSVFKACMKQKKKEFKAG-NH2 (disulfide 1-5, 14-31) [compound 33] | 9.00 to 11.00 | 7.00 to 9.00
17 | CDATCQFRKAIDDCYYRSWHANVPGSVFKACMKQKKKEWKAGY (disulfide 1-5, 14-31) [compound 66] | 9.00 to 11.00 | 9.00 to 11.00
18 | CC[C@H](C)[C@H](NC(=O)[C@H](C)NC(=O)[C@H](CCCCN)NC(=O)[C@H](CCCNC(=N)N)NC(=O)[C@H](Cc1ccccc1)NC(=O)[C@H](CCC(N)=O)NC(=O)[C@@H]1CSSC[C@H](N)C(=O)N[C@@H](CC(=O)O)C(=O)N[C@@H](C)C(=O)N[C@@H]([C@@H](C)O)C(=O)N1)C(=O)N[C@@H](CC(=O)O)C(=O)N[C@@H](CC(=O)O)C(=O)N[C@H]1CSSC[C@@H](C(=O)N[C@@H](CCSC)C(=O)N[C@@H](CCCCN)C(=O)N[C@@H](CCC(N)=O)C(=O)N[C@@H](CCCCN)C(=O)N[C@@H](CCCCN)C(=O)N[C@@H](CCCCN)C(=O)N[C@@H](CCC(=O)O)C(=O)N[C@@H](Cc2ccccc2)C(=O)N[C@@H](CCCCN)C(=O)N[C@@H](C)C(=O)NCC(=O)N[C@@H](CCCCN)C(=O)O)NC(=O)[C@H](CCC(=O)O)NC(=O)[C@H](CCCCN)NC(=O)[C@H](Cc2ccccc2)NC(=O)[C@H](C(C)C)NC(=O)[C@H](CO)NC(=O)[C@H](CC(N)=O)NC(=O)[C@H](CO)NC(=O)[C@H](Cc2c[nH]cn2)NC(=O)[C@H](Cc2c[nH]cn2)NC(=O)[C@H](C)NC(=O)[C@H](CCC(N)=O)NC(=O)[C@H](CCCCN)NC(=O)[C@H](CCC(N)=O)NC1=O [compound 396] (H-CDATCQFRKAIDDCQKQAHHSNSVFKECMKQKKKEFKAGK-OH; disulfide 1-5, 14-28) |  | 7.00 to 9.00
19 | CDATCQFRKAIDDCQKQAHHSNVPGNSVKECMKQKKKEFKAGK (disulfide 1-5, 14-31) [compound 362] |  | < 7.00
20 | CDATCQFRKAIDDCQKQAHHSNVSVFKECMKQKKKEFKAGK (disulfide 1-5, 14-29) [compound 397] |  | 7.00 to 9.00
21 | CDATCQFRKAIDDCQKQAHHSNVPNSVFKECMKQKKKEFKAGK (disulfide 1-5, 14-31) [compound 365] |  | 7.00 to 9.00
22 | CDATCQFRKAIDDCQKQAHHSNVPGSVFKECMKQKKKEFKAGK (disulfide 1-5, 14-31) [compound 364] |  | 7.00 to 9.00
23 | CDATCQFRKAIDDCQKQAHHSNVPGNSFKECMKQKKKEFKAGK (disulfide 1-5, 14-31) [compound 363] |  | 7.00 to 9.00
24 | CC[C@H](C)[C@H](NC(=O)[C@H](C)NC(=O)[C@H](CCCCN)NC(=O)[C@H](CCCNC(=N)N)NC(=O)[C@H](Cc1ccccc1)NC(=O)[C@H](CCC(N)=O)NC(=O)[C@@H]1CSSC[C@H](N)C(=O)N[C@@H](CC(=O)O)C(=O)N[C@@H](C)C(=O)N[C@@H]([C@@H](C)O)C(=O)N1)C(=O)N[C@@H](CC(=O)O)C(=O)N[C@@H](CC(=O)O)C(=O)N[C@H]1CSSC[C@@H](C(=O)N[C@@H](CCSC)C(=O)N[C@@H](CCCCN)C(=O)N[C@@H](CCC(N)=O)C(=O)N[C@@H](CCCCN)C(N)=O)NC(=O)[C@H](CCC(=O)O)NC(=O)[C@H](CCCCN)NC(=O)[C@H](Cc2ccccc2)NC(=O)[C@H](C(C)C)NC(=O)[C@H](CO)NC(=O)[C@H](CC(N)=O)NC(=O)CNC(=O)[C@@H]2CCCN2C(=O)[C@H](C(C)C)NC(=O)[C@H](CC(N)=O)NC(=O)[C@H](CO)NC(=O)[C@H](Cc2c[nH]cn2)NC(=O)[C@H](Cc2c[nH]cn2)NC(=O)[C@H](C)NC(=O)[C@H](CCC(N)=O)NC(=O)[C@H](CCCCN)NC(=O)[C@H](CCC(N)=O)NC1=O [compound 413] |  | 7.00 to 9.00
25 | CDATCQFRKAIDDCKQQAHHSNVPGNSVFEKCMKQKKKEFKAGK (disulfide 1-5, 14-32) [compound 346] |  | < 7.00
26 | CDATCQFRKAIDDCQKQAHHSNVGNSVFKECMKQKKKEFKAGK (disulfide 1-5, 14-31) [compound 398] |  | 7.00 to 9.00
